Where “and” joins values, the source holds several entries; their conditions need not be identical. Equal values may be shown once. After the bases stand the sugars from the 5' end (letter, count) and the backbone: PS all phosphorothioate, else s phosphorothioate and o phosphodiester by linkage. Methylation of C is not given here. e = 2'-O-(2-methoxyethyl) (MOE); k = constrained ethyl (cEt); d = 2'-deoxy (DNA)
Target: IRF4
Settings: ASO

Sequence | target mRNA inhibition (MM.1R, 1 µM) | target mRNA inhibition (SK-MEL-28, 4 µM) | other results
AACGACTCCACAGAGC (sugars k3 d10 k3, PS) | 4% | – | –
TATTACTCTTAGGCAC (sugars k3 d10 k3, PS) | – | 44% | –
AACGACAAGTGGCGCA (sugars k3 d10 k3, PS) | 12% | – | –
GGTTTATTAGCTTTCT (sugars k3 d10 k3, PS) | – | -1% | –
AAGTTCATGTAAAGTC (sugars kkdddddddddekeke, PS) | 34% and 29% | – | –
AGGTTGCCGAGATATA (sugars k3 d10 k3, PS) | 54% and 67% | – | –
TCATCCGAAAAGACTG (sugars k3 d10 k3, PS) | 16% | – | –
ACAGTAAGAGGGCAGT (sugars k3 d10 k3, PS) | – | 84% | –
TGTGATAGCTGAGCTG (sugars kkdddddddddkdkdk, PS) | 47% | – | –
GACCAGCTTTTTCAAA (sugars k3 d10 k3, PS) | – | 38% | –
GGTAAGGGCCCCGTGA (sugars k3 d10 k3, PS) | – | 33% | –
GCAGTCAATTGGACGC (sugars k3 d10 k3, PS) | – | 77% | –
TTATAGTAGGTAAGAT (sugars k3 d10 k3, PS) | – | 2% | –
GAATAGAGGAATGGCG (sugars k3 d10 k3, PS) | – | 39% | –
GTACATGGCAGTGGAG (sugars k3 d10 k3, PS) | – | 56% | –
TCTTTTTAGTTCATAC (sugars k3 d10 k3, PS) | – | 26% | –
ACCTTAACCAATCCCA (sugars k3 d10 k3, PS) | – | 71% | –
GGCCGGAGACCTTGAA (sugars k3 d10 k3, PS) | – | 3% | –
AAGCTTGATAAAGGCT (sugars k3 d9 k3 e1, PS) | 5% | – | –
CTATAGTGTTCCAGGA (sugars kkdddddddddekeke, PS) | 48% | – | –
GTAAACTGCCTTAGGG (sugars k3 d10 k3, PS) | – | 44% | –
CTACAGATCTCAGCAA (sugars k3 d10 k3, PS) | – | 18% | –
ACAGATGGCATGCGAA (sugars k3 d10 k3, PS) | 19% | – | –
ACAGCCGAAGCATTTT (sugars k3 d10 k3, PS) | 8% | – | –
ACTTTTAGAGAGGAGA (sugars e1 k2 d9 k2 e2, PS) | 28% | – | –
TGCCAATCAGATGTCA (sugars k3 d10 k3, PS) | – | 22% | –

Sequence | target mRNA inhibition (MM.1R, 1 µM) | target mRNA inhibition (SK-MEL-28, 4 µM) | other results
CACATCAATGTTTTAG (sugars k3 d10 k3, PS) | 66% and 75% and 72% | – | target mRNA inhibition (H929, 0.04 µM): 14%; target mRNA inhibition (KMS11, 0.2 µM): 61% and 78%; target mRNA inhibition (MM.1R, 0.0625 µM): 48%; target mRNA inhibition (MM.1R, 0.25 µM): 62%; target mRNA inhibition (MM.1R, 4 µM): 89%
TTTGAGACTTAACCCA (sugars k3 d10 k3, PS) | 31% | – | –
CCGCTGAGAGCCGAGG (sugars k3 d10 k3, PS) | – | -4% | –
ATTAATTCTCCTATGC (sugars k3 d10 k3, PS) | – | 15% | –
GGCACGAGGAAGCATA (sugars k3 d10 k3, PS) | – | 62% | –
GATATCAAAGATCTCC (sugars k3 d10 k3, PS) | – | 57% | –
CAAACCTTAAGCTATT (sugars k3 d10 k3, PS) | – | – | target mRNA inhibition (MM.1R, 0.0625 µM): -13%; target mRNA inhibition (MM.1R, 0.25 µM): -5%; target mRNA inhibition (MM.1R, 4 µM): 6%
CGCCCTGGACTCGGAG (sugars k3 d10 k3, PS) | – | 36% | –
CGCCCAGGACCCGGCT (sugars k3 d10 k3, PS) | -1% | – | –
ACTGTTACCGATGCTT (sugars kkdddddddddekeke, PS) | 23% and 37% | – | –
TTCATGTAAAGTCTGC (sugars kkddddddddddkeke, PS) | 49% and 28% | – | –
GGTAACAATACTGTAA (sugars k3 d10 k3, PS) | – | 59% | –
ACGGAAGTTTACACTG (sugars kkdddddddddekeke, PS) | 8% | – | –
CATGAGGGTGACACAC (sugars k3 d10 k3, PS) | – | 47% | –
AAATATACCAGCTCAA (sugars k3 d10 k3, PS) | – | 25% | –
GAGATATAAATAGCTG (sugars k3 d10 k3, PS) | – | 51% | –
CCTCTGAGCAGAACGA (sugars k3 d10 k3, PS) | – | 76% | –
CCAAATGTGGAGCTCC (sugars k3 d10 k3, PS) | – | 23% | –
GCAAAAGAAACGAGTT (sugars k3 d10 k3, PS) | – | 8% | –
TTTACAGCATCTAAGG (sugars k3 d10 k3, PS) | – | 34% | –
CGCTCAACCAGTTCCT (sugars k3 d10 k3, PS) | – | 28% | –
GGTAAAGGCACATTCC (sugars k3 d10 k3, PS) | – | 47% | –
GAGCATCACTATTAAG (sugars k3 d10 k3, PS) | 14% | – | –
CAATAATCTCCCAGCA (sugars k3 d10 k3, PS) | – | 37% | –
GATTATATACTGGTTG (sugars k3 d10 k3, PS) | – | 59% | –
CTTGCCGCTGTCGATC (sugars k4 d8 k4, PS) | – | 42% | –

Sequence | target mRNA inhibition (MM.1R, 1 µM) | target mRNA inhibition (SK-MEL-28, 4 µM) | other results
GTAAGATCTCCATGGT (sugars k3 d10 k3, PS) | 17% | – | –
AGCACCGTGTGGAAAG (sugars k3 d10 k3, PS) | – | 57% | –
GGCTGAACTGTGTAAT (sugars k3 d10 k3, PS) | – | 72% | –
GTGATGTCAGGTTTTC (sugars kkdddddddddekeke, PS) | 58% | – | target mRNA inhibition (MM.1R, 0.074 µM): 14%; target mRNA inhibition (MM.1R, 0.222 µM): 16%; target mRNA inhibition (MM.1R, 0.666 µM): 30%; target mRNA inhibition (MM.1R, 2 µM): 59%
CCACATTAGCAATTAG (sugars k3 d10 k3, PS) | – | 19% | –
CTCATAGGTGTACACG (sugars k3 d10 k3, PS) | – | 59% | –
TACTGCTTGAGGTTTT (sugars kkdddddddddekeke, PS) | 18% | – | –
GAGGGTCTGGAAACTC (sugars k4 d8 k4, PS) | – | 8% | –
TTGTCTGGCTAGCAGA (sugars k3 d10 k3, PS) | – | 45% | –
ATGGCAGTGGAGCTCC (sugars k3 d10 k3, PS) | – | 56% | –
GCATGAGGGTGACACA (sugars k3 d10 k3, PS) | – | 42% | –
ATGGAACAGTAACTTG (sugars k3 d10 k3, PS) | 3% | – | –
ATGAGTCGGTCACTTG (sugars k3 d10 k3, PS) | – | 78% and 72% | –
TTACATCCTAGAACAC (sugars k3 d10 k3, PS) | – | 3% | –
GAATTTCCATTGGAGG (sugars k3 d10 k3, PS) | – | 43% | –
TTATAACCGGTAGAGT (sugars k3 d10 k3, PS) | – | 38% | –
CCATTTAATCTGTCTA (sugars k3 d10 k3, PS) | – | 28% | –
GGCTTTGTGTTTAAGT (sugars k3 d10 k3, PS) | – | 23% | –
TTATGTTAGCCAATTC (sugars kkddddddddddkeke, PS) | 11% and 16% | – | –
ACACAGCCTCGCCCTC (sugars k3 d10 k3, PS) | – | 20% | –
GCTTACTGTGATTCTG (sugars k3 d10 k3, PS) | – | 34% | –
CACTTTAAAAGTTGAC (sugars k3 d10 k3, PS) | – | 28% | –
TTTCACATGATAAGGC (sugars k3 d10 k3, PS) | – | 43% | –
AGCCATAGCAAATGGC (sugars k3 d10 k3, PS) | – | 5% | –
CCAAGGATAACCTGAA (sugars k3 d10 k3, PS) | – | 44% | –
AACTGAGAGTGCGAGG (sugars k3 d10 k3, PS) | – | 1% | –

Sequence | target mRNA inhibition (MM.1R, 1 µM) | target mRNA inhibition (SK-MEL-28, 4 µM) | other results
ACACTTTTAGAGAGGA (sugars e1 k2 d9 k2 e2, PS) | 29% | – | –
TAATAATGCTTGCAAG (sugars k3 d10 k3, PS) | – | 12% | –
AATTTCCATTGGAGGA (sugars k3 d10 k3, PS) | – | 33% | –
GTAAATGAGTCGGTCA (sugars k3 d10 k3, PS) | – | 79% | –
ACAAGCTGGGCCTTGC (sugars k3 d10 k3, PS) | – | 27% | –
ATTTACACCGTTGCTC (sugars k3 d10 k3, PS) | 13% | – | –
CATTACTTAGACATTA (sugars k3 d10 k3, PS) | – | 19% | –
CCCGACACGCGCCGCT (sugars k3 d10 k3, PS) | – | 12% | –
GTAGAGTGAGATGCGG (sugars k3 d10 k3, PS) | 51% and 40% | – | target mRNA inhibition (MM.1R, 0.0625 µM): -4%; target mRNA inhibition (MM.1R, 0.25 µM): 16%; target mRNA inhibition (MM.1R, 4 µM): 70%
CCCAAAGGGCATCCTC (sugars k3 d10 k3, PS) | – | 41% | –
GATTATATACTGGTTG (sugars kkdddddddddekeke, PS) | 46% | – | –
ACCCAATAGTCTAGCT (sugars k3 d10 k3, PS) | – | 25% | –
GAATTTCAGGAGCTAG (sugars k3 d10 k3, PS) | – | 61% | –
ATGTTAGCCAATTCCT (sugars k2 d9 e3 k2, PS) | 17% and 6% | – | –
TAGTATGAGAAACGGC (sugars k3 d9 k3 e1, PS) | 48% | – | –
CCTCAGTTTGTGAAGC (sugars e1 k2 d9 k2 e2, PS) | 11% | – | –
GGAACAAAAGGTTCCC (sugars k3 d10 k3, PS) | – | 12% | –
CAGAAGATCTCTACTG (sugars k3 d10 k3, PS) | – | 12% | –
CCGTCCGCGCCCGCGC (sugars k3 d10 k3, PS) | – | 61% | –
GTCCTGCTTGCCCGCG (sugars k3 d10 k3, PS) | – | 31% | –
CCGCAGAGAGCTAGCA (sugars k3 d10 k3, PS) | – | -6% | –
TAGGAAGCACTGGCAT (sugars k3 d10 k3, PS) | – | 28% | –
AAGAGGCGACTGCTGA (sugars k3 d10 k3, PS) | – | 35% | –
GACACTTTTAGAGAGG (sugars kkdddddddddkekek, PS) | 17% | – | –
TTATATACTGGTTGGT (sugars kkdddddddddkdkdk, PS) | 18% | – | –
TACAAAACGGACTGGA (sugars k3 d10 k3, PS) | – | 38% | –
